This note sets out measurements from article PMC8320897, “Inhibition of PI3K and MAPK pathways along with KIT inhibitors as a strategy to overcome drug resistance in gastrointestinal stromal tumors” (PLoS ONE, 2021).

Read-outs that look alike come from different tables or passages of the source.

One test relates to GIST-T1. Description: Cell proliferation assay (Cell Counting Kit-8), drug screen. The class given is cell-based, human. Conditions: cell viability after 72 hours of treatment, read-out: IC50 GIST-T1. In general terms: Formazan colour is commonly taken as a measure of viable cells.
For a further test, the system named is GIST-T1/670. The test can be described thus: Cell proliferation assay (Cell Counting Kit-8). In kind it is cell-based, human. Conditions: cell viability after 72 hours of treatment, read-out: IC50 T1/670.
A further test concerns GIST-T1/10R. The test can be described thus: Cell proliferation assay (Cell Counting Kit-8). The class given is cell-based, human. Particulars: cell viability after 72 hours of treatment, read-out: IC50 T1-10R.
In a further test the test system is GIST882. Description: Cell proliferation assay (Cell Counting Kit-8), drug screen. In kind it is cell-based. Particulars: cell viability after 72 hours of treatment, read-out: IC50 GIST882.

Consider `O=S(=O)(c1cccc2cnccc12)N1CCCNCC1` [Fasudil], for which the IC50 in the test with GIST-T1 (Homo sapiens, GISTT1) is about 70 µM; with GIST-T1/670 (Homo sapiens, GISTT1), about 70 µM; in the test with GIST-T1/10R (Homo sapiens, GISTT1), about 70 µM; in the test with GIST882 (Homo sapiens, GIST882), about 70 µM.

As for `O=C1CCC(N2C(=O)c3ccccc3C2=O)C(=O)N1` (stereo not shown) [Thalidomide], the IC50 in the test on GIST-T1 (Homo sapiens, GISTT1) is over 100 µM; in the test on GIST-T1/670 (Homo sapiens, GISTT1), over 100 µM; in the test with GIST-T1/10R (Homo sapiens, GISTT1) it was over 100 µM; in the test with GIST882 (Homo sapiens, GIST882) it was over 100 µM.

Consider `Cc1cn(-c2cc(NC(=O)c3ccc(C)c(Nc4nccc(-c5cccnc5)n4)c3)cc(C(F)(F)F)c2)cn1` [Nilotinib], for which the IC50 in the test with GIST-T1 (Homo sapiens, GISTT1) was 0.025 µM; with GIST-T1/670 (Homo sapiens, GISTT1) it was over 10 µM; in the test with GIST-T1/10R (Homo sapiens, GISTT1) it was over 10 µM; in the test on GIST882 (Homo sapiens, GIST882), 0.025 µM.

For the compound `O=C1Nc2ccccc2/C1=C1/Nc2ccccc2/C1=N\O` [Indirubin-3’-Monoxime], the IC50 in the test on GIST-T1, with GIST-T1/670, with GIST-T1/10R and in the test on GIST882 was over 10 µM each time.

For `Oc1c2ccccc2c2c3c(cccc13)N=N2` [SP600125], the IC50 in the test with GIST-T1 (Homo sapiens, GISTT1) was found to be 1 µM; in the test with GIST-T1/670 (Homo sapiens, GISTT1), 1 µM; in the test on GIST-T1/10R (Homo sapiens, GISTT1), 1 µM; in the test on GIST882 (Homo sapiens, GIST882), 1 µM.

Consider `C#Cc1cccc(Nc2ncnc3cc(OCCOC)c(OCCOC)cc23)c1` [Erlotinib], for which the IC50 is over 10 µM in the test on GIST-T1 (Homo sapiens, GISTT1); over 10 µM with GIST-T1/670 (Homo sapiens, GISTT1); over 10 µM in the test on GIST-T1/10R (Homo sapiens, GISTT1); over 10 µM in the test with GIST882 (Homo sapiens, GIST882).

For the compound `O=C1C=CC(=O)c2c(O)cccc21` [Juglone], the IC50 in the test with GIST-T1 (Homo sapiens, GISTT1) amounted to 5 µM; in the test with GIST-T1/670 (Homo sapiens, GISTT1) it was 5 µM; in the test on GIST-T1/10R (Homo sapiens, GISTT1), 5 µM; in the test on GIST882 (Homo sapiens, GIST882) it was 5 µM.

For the compound `Cc1cc([N+](=O)[O-])ccc1NS(=O)(=O)c1cc(Cl)ccc1Cl` [FH535], the IC50 was over 30 µM in the test on GIST-T1, over 15 µM in the test with GIST-T1/670, over 15 µM with GIST-T1/10R and over 30 µM in the test on GIST882.

For the compound `CO[C@H]1C[C@@H]2CC[C@@H](C)[C@@](O)(O2)C(=O)C(=O)N2CCCC[C@H]2C(=O)O[C@H]([C@H](C)C[C@@H]2CC[C@@H](OC(=O)C(C)(CO)CO)[C@H](OC)C2)CC(=O)[C@H](C)/C=C(\C)[C@@H](O)[C@@H](OC)C(=O)[C@H](C)C[C@H](C)/C=C/C=C/C=C/1C` [Temsirolimus], the IC50 with GIST-T1 (Homo sapiens, GISTT1) was over 100 µM; in the test on GIST-T1/670 (Homo sapiens, GISTT1) it was over 100 µM; in the test on GIST-T1/10R (Homo sapiens, GISTT1), over 100 µM; in the test on GIST882 (Homo sapiens, GIST882), over 100 µM.

As to `CC(C)(C)c1nc2c3cc[nH]c(=O)c3c3cc(F)ccc3c2[nH]1` [JAK Inhibitor 1], the IC50 with GIST-T1 is over 10 µM; with GIST-T1/670 it was over 15 µM; in the test on GIST-T1/10R it was over 15 µM; in the test with GIST882, over 10 µM.

Regarding `O=S(=O)(NCCNC/C=C/c1ccc(Br)cc1)c1cccc2cnccc12` [H-89], the IC50 with GIST-T1 and in the test with GIST882 was over 25 µM throughout.

`Nc1ncnc2c1c(I)cn2[C@@H]1O[C@H](CO)[C@@H](O)[C@H]1O` [5-iodotubercidin]: the IC50 in the test on GIST-T1, with GIST-T1/670, in the test with GIST-T1/10R and in the test with GIST882 was at least 5 µM each time.

Sarcatanib: the IC50 is 5 µM in the test on GIST-T1, over 10 µM with GIST-T1/670, over 10 µM in the test with GIST-T1/10R and 1 µM with GIST882.

Consider `Cc1ccc(NC(=O)c2ccc(CN3CCN(C)CC3)cc2)cc1Nc1nc(-c2cccnc2)cs1` [Masatinib], for which the IC50 came to 0.025 µM in the test on GIST-T1 (Homo sapiens, GISTT1); 5 µM in the test with GIST-T1/670 (Homo sapiens, GISTT1); 5 µM in the test on GIST-T1/10R (Homo sapiens, GISTT1); 0.05 µM with GIST882 (Homo sapiens, GIST882).

Consider `Nc1ncnc2c1nc(Br)n2C1OC2COP(O)(=S)OC2C1O` (stereo not shown) [Rps-Br-cAMPS], for which the IC50 with GIST-T1 and in the test on GIST882 was over 100 µM in each case.

Consider `O=c1c(-c2ccc(O)cc2)coc2cc(O)cc(O)c12` [Genistein], for which the IC50 with GIST-T1 (Homo sapiens, GISTT1) is over 50 µM; in the test with GIST-T1/670 (Homo sapiens, GISTT1), over 50 µM; with GIST-T1/10R (Homo sapiens, GISTT1), over 50 µM; with GIST882 (Homo sapiens, GIST882), over 50 µM.

For `Cc1nc(Nc2ncc(C(=O)Nc3c(C)cccc3Cl)s2)cc(N2CCN(CCO)CC2)n1` [Dasatinib], the IC50 in the test with GIST-T1 (Homo sapiens, GISTT1) was 0.025 µM; in the test on GIST-T1/670 (Homo sapiens, GISTT1) it was over 10 µM; with GIST-T1/10R (Homo sapiens, GISTT1), over 10 µM; in the test on GIST882 (Homo sapiens, GIST882), under 0.1 µM.
